Measured values as given in patent publication US7875601B2, “Cancer treatment with epothilones” (Novartis AG, priority 1998, dated 2011).
“Also recorded” adds a separate entry of the source.

How the values were obtained:
[1] = system: KB-8511 (Epidermoid, MDR); experiment: Antiproliferative assay, KB-8511; assay type: cell-based, human
Description: The human epidermal (mouth) carcinoma cell line KB-8511 (a P-gp over-expressing cell line derived from the epidermoid (mouth) KB-31 carcinoma cell line) is obtained from Dr. R. M. Baker, Roswell Park Memorial Institute (Buffalo, N.Y., USA) (for description see Akiyama et al., Somat. Cell. Mol. Genetics 11, 117-126 (1985) and Fojo A., et al., Cancer Res. 45, 3002-3007 (1985)) and is cultured as previously described (Meyer, T., et al., Int. J. Cancer 43 851-856 (1989)).
Antiproliferative assays are performed as previously described (Int. J. Cancer 43, 851-6 (1989)). Briefly, cells are seeded at 1.5×10^3 cells/well into 96-well microtiter plates and incubated overnight. Compounds are added in serial dilutions on day 1. The plates are then incubated for an additional 2 to 5 days, allowing for at least one cell doubling (cell line dependent), after which the cells are fixed with 3.3% v/v glutaraldehyde, washed with water and stained with 0.05% w/v methylene blue. After washing, the dye is eluted with 3% v/v HCl and the optical density measured at 665 nm with a SpectraMax 340 (Bucherer, Basel, Switzerland). IC50 values are determined by a computerized system (SoftPro, Bucherer, Basel, Switzerland) using the formula (OD test−OD start)/(OD control−OD start)×100. IC50 is defined as the drug concentration which leads to 50% of cells per well compared to control cultures (100%) at the end of incubation period.

[2] = Determination of the single i.v. dose MTD in normal female BALB/c mice; assay type: in vivo
Description: The Maximal Tolerated Dose (MTD) is determined according to standard procedures; preferably, in warm-blooded animals the MTD in case of oral or intravenous administration is determined as the Dose of a single administration where no death occurs and a loss of body weight of less than 40, preferably less than 25, percent (%) is found in the treated warm-blooded animal individual (this term here mainly referring to an animal; for humans see below).
For the MTD determination, female BALB/c nude mice or BALB/c mice (obtained from Novartis Animal Farm, Sisseln, Switzerland) are treated once intravenously with epothilone B (n=3 per dose group). The dosage is increased (2, 4, 6, 8, 10 and 12 mg/kg) and the mice are observed for the presentation of overt toxic effects for 10 days after drug treatment.

[3] = system: human HCT-15 colon carcinoma; experiment: Antitumor effect against s.c. transplanted HCT-15 tumors; assay type: in vivo, female BALB/c nude mice
Source text: Human colorectal adenocarcinoma cell line HCT-15 (ATCC CCL 225) is from the American Type Culture Collection (Rockville, Md., USA), and the cells are cultivated in vitro as recommended by the supplier. HCT-15 is an epithelial-like cell line. (Cancer Res. 39: 1020-25 [1979]) that is multi-drug resistant by virtue of over-expression of P-glycoprotein (P-gp, gp170, MDR-1;Anticancer Res. 11: 1309-12 [1991]; J. Biol. Chem. 264: 18031-40 [1989]; Int. J. Cancer 1991; 49: 696-703 [1991]) and glutathione-dependent resistance mechanisms (Int. J. Cancer 1991; 49: 688-95 [1991]).
Female or male BALB/c nu/nu (nude) mice are kept under sterile conditions (10 to 12 mice per Type III cage) with free access to food and water. Mice weigh between 20 and 25 grams at the time of tumor implantation. Tumors are established by subcutaneous injection of cells (minimum 2×10^6 cells in 100 μl PBS or medium) in carrier mice (4-8 mice per cell line). The resulting tumors are serially passaged for a minimum of three consecutive transplantations prior to start of treatment. Tumor fragments (approx. 25 mg) are implanted s.c. into the left flank of animals with a 13-gauge trocar needle while the mice are exposed to Forene (Abbott, Switzerland) anesthesia.
Tumor growth and body weights are monitored once or twice weekly. All treatments are administered intravenously (i.v.) and are initiated when a mean tumor volume of approximately 100 to 250 mm^3 is attained, depending upon the tumor type. Tumor volumes are determined using the formula […] (see Cancer Chemother. Pharmacol. 24:148-154, [1989]). Treatments with epothilone B vary the dose and the frequency of administration. Comparator agents are administered according to previously determined optimal treatment regimens. In addition to presenting changes in tumor volumes over the course of treatment, antitumor activity is expressed as T/C % (mean increase of tumor volumes of treated animals divided by the mean increase of tumor volumes of control animals multiplied by 100). Tumor. regression (%) represents the smallest mean tumor volume compared to the mean tumor volume at the start of treatment, according to the formula Regression (%)=(1−Vend/Vstart)×100(Vend=final mean tumor volume, Vstart=mean tumor volume at the start of treatment. Any animals in which the tumor has reached a size exceeding approximately 1.5 to 2.5 cm^3 are sacrificed. Details can be found below.
Tumor volumes are used as the primary indicator of activity of antitumor agents used alone or in combination, and changes in body weights are measured as an indicator of treatment tolerability.

[4] = 2 mg/kg single i.v. bolus, Experiment 2
[5] = 4 mg/kg single i.v. bolus, Experiment 2
[6] = 6 mg/kg single i.v. bolus, Experiment 1
[7] = 6 mg/kg single i.v. bolus, Experiment 2
[8] = 8 mg/kg single i.v. bolus, Experiment 1
[9] = 8 mg/kg single i.v. bolus, Experiment 2
[10] = 10 mg/kg single i.v. bolus, Experiment 1
[11] = 12 mg/kg single i.v. bolus, Experiment 1
[12] = 4 mg/kg, i.v. once on day 14, mean ± SEM

## C/C(=C\c1csc(C)n1)[C@@H]1C[C@@H]2O[C@]2(C)CCC[C@H](C)[C@H](O)[C@@H](C)C(=O)C(C)(C)[C@@H](O)CC(=O)O1 [epothilone B]
[1]; KB-8511, 2 d exposure, mean ± SD, read-out: IC50 for growth inhibition
  IC50: 0.89 ± 0.47 nM
[1]; KB-8511 vs parental line
  relative resistance, IC50 (resistant line)/IC50 (parental line): (1.25)
[2]; [4]
  Body Weight % Change: 12.3 ± 3.0%
  Body Weight Δ (mean g ± SD): 2.3 ± 0.6 g
  Mortalities: 0/3
[2]; [5]
  Body Weight % Change: 6.5 ± 2.6%
  Body Weight Δ (mean g ± SD): 1.3 ± 0.6 g
  Mortalities: 0/3
[2]; [6]
  Body Weight % Change: −28.6 ± 3.5%
  Body Weight Δ (mean g ± SD): -6.1 ± 0.9 g
  Mortalities: 1/3
[2]; [7]
  Body Weight % Change: −27.5 ± 2.1%
  Body Weight Δ (mean g ± SD): -5.3 ± 0.6 g
  Mortalities: 2/3
[2]; [8]
  Body Weight % Change: −22.1 ± 13.1%
  Body Weight Δ (mean g ± SD): -5.1 ± 3.2 g
  Mortalities: 3/3
[2]; [9]
  Body Weight % Change: −25.3 ± 3.9%
  Body Weight Δ (mean g ± SD): -5.0 ± 1.0 g
  Mortalities: 3/3
[2]; [10]
  Body Weight % Change: −24.9 ± 1.6%
  Body Weight Δ (mean g ± SD): -5.6 ± 0.6 g
  Mortalities: 3/3
[2]; [11]
  Body Weight % Change: −23.6 ± 11.9%
  Body Weight Δ (mean g ± SD): -5.4 ± 2.9 g
  Mortalities: 3/3
[2]; single dose i.v., normal mice
  MTD: 4 mg/kg
[3]; 4 mg/kg, i.v. once on day 14
  Regression: −61%
  Survival (No. alive/total): 8/8
  T/C: tumor regressions; also recorded: Regression
[3]; [12]
  % Body Weight Change: 2 ± 2%
  D Body Weight: 0.4 ± 0.3 g
  D Tumor Volume (mm^3): −97 ± 25 mm^3
[3]; single 4 mg/kg dose
  mortalities due to treatment: No mortalities due to treatment
